Measured values from US10253037B2, “Drug with antiviral activity (variants)” (priority 2015, dated 2019).

Legend:
[1] = tested on: MT-4 human lymphoblastoid cells; test: Cytotoxic effect of the drug on uninfected MT-4 cells (viability by dye); format: cell-based; conditions: 5 days
Protocol: Cells. MT-4 human lymphoblastoid cells were used. […] The drug. Samples of drugs dissolved in dimethylsulfoxide were studied. Study of the cytotoxic effect of the drug. The investigated medicinal product was added to the cells in various concentrations. […] Recording of the results: determination of the viability and the number of the cells by means of a dye.

HIV-1899A strain [2] = test: Antiviral effect in MT-4 cells infected with HIV-1 (MTT, cytopathic effect, syncytium); format: cell-based; conditions: 0.01 TCD50/cell, 5 days
Protocol: Cells. MT-4 human lymphoblastoid cells were used. The cells were incubated in RPMI 1640 medium with 10% serum of cow embryos, 100 μg/ml of gentamicin.
Viruses. HIV-1899A strain was used as the source of the virus.
The drug. Samples of drugs dissolved in dimethylsulfoxide were studied.
Study of the antiviral effect of the drug.
The investigated medicinal products were added to the cells at various doses with simultaneous infection with the virus at a dose of 0.01 TCD50/cell. The cell cultures were incubated at 37° C. in the atmosphere with 5% of CO2 and at 98% humidity for 5 days. The results were recorded by staining the cells with tetrazolium dye (MTT method) with spectrophotometry and light microscopy: investigation of cytopathic effect of the virus (CPD) and virus-induced formation of syncytium (syncytium is a conglomerate of several cells with a common cell membrane formed as a result of fusion of their membranes).
The degree of protection of cells from the cyto-destructive effect of the virus was determined by the following formula:
[formula] where • A is the number of viable cells in the experimental group; • B is the same in the infected culture (virus control); • K is the same in the uninfected culture (cell control).

Hepatitis B virus (HBV) = test: Amount of extracellular HBV DNA in HepG2.2.15 culture medium (RT-PCR); format: cell-based; conditions: 5 μg/ml, HepG2.2.15 cells, 5 days; untreated control 4.42 +/− 0.28
Protocol: HepG2.2.15 line cells infected with Hepatitis B virus were grown in DMEM medium supplemented with 10% bovine serum at 5% CO2, 37° C.
Analysis of the amount of extracellular HBV of the DNA.
After 5 days of HepG2.2.15 incubation the culture medium was selected, the cells were separated by centrifugation, and the DNA was isolated by the Klintschar and Neuhuber method (Klintschar and Neuhuber, 2000). Quantitation of HBV was performed using RT-PCR.

HIV-1899A strain [3] = test: Joint action with anti-HIV drugs: cell protection in HIV-1 infected MT-4 cells (MTT); format: cell-based
Protocol: MT-4 human lymphoblastoid cells were used. The cells were cultured in RPMI 1640 medium with 10% serum of cow embryos, 100 μg/ml gentamicin.
The strain of HIV-1899A was used as a source of the virus.
The drug. Samples of drugs dissolved in dimethylsulfoxide were studied. As an antiretroviral reference drug, Raltegravir (prototype) was used.
Study of the antiviral action of the drug (cell protection).
The investigated drugs were added to the cells at various doses with simultaneous infection with the virus at a dose of 0.01 TCD50/cell. Cell cultures were incubated at 37° C. in the atmosphere with 5% CO2 and 98% humidity for 5 days. The results were recorded by staining the cells with tetrazolium dye (MTT method) with spectrophotometry and light microscopy: investigation of cytopathic effect of the virus (CPD) and virus-induced formation of syncytium (syncytium is a conglomerate of several cells with a common cell membrane formed as a result of fusion of their membranes).

| Structure (SMILES) | Without virus (cytotoxicity) Viability of cells, % ([1]; 10 μg/ml) [%] | Without virus (cytotoxicity) Viability of cells, % ([1]; 30 μg/ml) [%] | Without virus (cytotoxicity) Viability of cells, % ([1]; 50 μg/ml) [%] | HIV 1 infection Cytopathic effect of the virus, % (HIV-1899A strain [2]; 10 μg/ml) | HIV 1 infection Protection of cells, % (HIV-1899A strain [2]; 10 μg/ml) [%] | HIV 1 infection Cytopathic effect of the virus, % (HIV-1899A strain [2]; 30 μg/ml) | HIV 1 infection Protection of cells, % (HIV-1899A strain [2]; 30 μg/ml) [%] | HIV 1 infection Cytopathic effect of the virus, % (HIV-1899A strain [2]; 50 μg/ml) | HIV 1 infection Protection of cells, % (HIV-1899A strain [2]; 50 μg/ml) [%] | HBV Log10 IU/ml (amount of extracellular DNA HBV) (Hepatitis B virus (HBV)) | melting point | Protection of cells, % (HIV-1899A strain [3]; Lopinavir alone, 2.5 μg/ml) [%] | Protection of cells, % (HIV-1899A strain [3]; Raltegravir alone, 10 μg/ml) [%] | Protection of cells, % (HIV-1899A strain [3]; Retrovir alone, 0.003 μg/ml) [%] |
| --- | --- | --- | --- | --- | --- | --- | --- | --- | --- | --- | --- | --- | --- | --- |
| O=[N+]([O-])c1ccc(C2c3c(O)nc(Cl)nc3Oc3nc(Cl)nc(O)c32)cc1 [Derivative 1] | 100.0 | 100.0 | 100.0 | 0.0-0.0% | 100 | 0.0-0.0% | 90 | 0.0-0.0% | 100 | 2.58 +/− 0.33 Log10 IU/ml |  |  |  |  |
| O=[N+]([O-])c1ccc(C2c3c(O)nc(S)nc3Oc3nc(Cl)nc(O)c32)cc1 (stereo not shown) [Derivative 2, 2-chloro-8-sulfhydryl-5-(4-nitrophenyl)-5H-pyrimido [5′,4′:5,6]pyrano[2,3-d]pyrimidine-4.6-diol] | 100.0 | 100.0 | 100.0 | 0.0-0.0% | 100 | 96-100% | 0 | 55-80% | 10 | 2.65 +/− 0.19 Log10 IU/ml |  |  |  |  |
| O=[N+]([O-])c1ccc(C2c3c(O)nc(Cl)nc3Oc3nc(Cl)nc(Cl)c32)cc1 (stereo not shown) [Derivative 3, 2,6,8-trichloro-5-(4-nitrophenyl)-5H-pyrimido [5′, 4′:5,6] pyrano [2,3-d] pyrimidin-4-ol] | 100.0 | 100.0 | 100.0 | 15-70% | 50 | 18-92% | 30 | 10-40% | 65 |  | 265 to 267 °C |  |  |  |
| O=[N+]([O-])c1ccc(C2C3=C(O)NC(O)(S)N=C3Oc3nc(Cl)nc(O)c32)cc1 (stereo not shown) [Derivative 4, 2-chloro-8-sulfhydryl-5-(4-nitrophenyl)-5H-pyrimido [5′,4′:5,6]pyrano[2,3-d]pyrimidine-4,6,8-triol] | 100.0 | 100.0 | 100.0 | 0.0-0.0% | 95 | 15-60% | 50 | 0.0-0.0% | 90 |  | 270 °C (dec.) |  |  |  |
| Oc1nc(Cl)nc2c1C(c1ccccc1)c1c(O)nc(Cl)nc1O2 [Derivative 5] | 100.0 | 100.0 | 100.0 | 0.0-0.0% | 100 | 57.5-80.0% | 10.7 | 37.5-62.5% | 71.7 |  |  |  |  |  |
| Oc1nc(Cl)nc2c1C(c1cccc(Cl)c1)c1c(O)nc(Cl)nc1O2 [Derivative 6] | 100.0 | 100.0 | 100.0 | 57.5-80.0% | 10.7 | 37.5-62.5% | 71.7 | 0.0-0.0% | 90.5 |  |  |  |  |  |
| COc1ccc(C2c3c(O)nc(Cl)nc3Oc3nc(Cl)nc(O)c32)cc1 [Derivative 7] | 100.0 | 100.0 | 100.0 | 12-65% | 45 | 5-15% | 80 | 0.0-0.0% | 100 | 2.74 +/− 0.25 Log10 IU/ml |  |  |  |  |
| Cc1cccc(C)c1OCC(=O)N[C@@H](Cc1ccccc1)[C@@H](O)C[C@H](Cc1ccccc1)NC(=O)[C@H](C(C)C)N1CCCNC1=O [Lopinavir] |  |  |  |  |  |  |  |  |  |  |  | 17 |  |  |
| Cc1nnc(C(=O)NC(C)(C)c2nc(C(=O)NCc3ccc(F)cc3)c(O)c(=O)n2C)o1 [Raltegravir, reference compound] |  |  |  | 0.0-0.0% | 90 | 0.0-0.0% | 100 | 0.0% |  |  |  |  | 23 |  |
| Cc1cn([C@H]2C[C@H](N=[N+]=[N-])[C@@H](CO)O2)c(=O)[nH]c1=O [Retrovir] |  |  |  |  |  |  |  |  |  |  |  |  |  | 13 |
